Reference: US8889668B2, “Oxadiazole diaryl compounds” (Merck Serono SA, priority 2007, dated 2014)

Assays:
S1P1 [1] = target: T1, S1P1 (Homo sapiens (Human), UniProt P21453); experiment: 35S-GTPγS binding, membranes from CHO cells expressing S1P1; assay type: biochemical; settings: 60 min 30° C., read-out: S1P1 GTPgS EC50
S1P1 [2] = target: T1, S1P1; experiment: Receptor binding assay, [33P]sphingosine 1-phosphate, membranes from CHO cells expressing S1P1; settings: [33P]S1P 25 pM, SPA
Method: (§1) Receptor binding assay: Membranes were prepared from CHO cells expressing S1P1 or S1P3 for use in ligand and […] binding studies. Cells were suspended in 50 mM TRIS, pH 7.4, 2 mM EDTA, 250 mM Sucrose (buffer A) and 1× Complete protease inhibitor cocktail (Roche), and disrupted at 4° C. by nitrogen decompression using a cell disruption bomb (Parr Instrument). Following centrifugation at 1000 RPM for 10 min at 4° C., the supernatant was suspended in buffer A and centrifuged again at 19000 RPM for 60 min at 4° C. The pellet was then suspended in 10 mM HEPES, pH 7.4, 1 mM EDTA, 250 mM Sucrose (Buffer B), and 1× Complete EDTA-free protease inhibitor cocktail and homogenized using a potter. Membranes were flash frozen in liquid nitrogen and stored at −80° C. [33P]sphingosine 1-phosphate (3000 Ci/mmol; American Radiolabeled Chemicals, Inc.) was added to test compounds in DMSO. Membranes and WGA SPA beads (GE Healthcare) were added to give a final volume of 100 μl in 96-well plates with assay concentrations of 25 pM or 10 pM [33P]sphingosine 1-phosphate (respectively for S1P1 or S1P3), 50 mM HEPES, pH 7.5, 5 mM MgCl2, 100 mM NaCl, 0.4% fatty acid-free BSA, 1-5 μg/well of proteins and 100 μg/well of WGA SPA beads. Binding was performed for 60 min at room temperature on a shaker and bound radioactivity was measured on a PerkinElmer 1450 MicroBeta counter. Specific binding was calculated by subtracting remaining radioactivity in the presence of 1000-fold excess of unlabeled S1P. Binding data were analyzed using the GraphPad Prism program.

S1P3 = S1P3 (Homo sapiens (Human), UniProt Q99500); experiment: 35S-GTPγS binding, membranes from CHO cells expressing S1P3; assay type: biochemical; settings: 60 min 30° C., read-out: S1P3 GTPgs EC50
Chain of S1P3 (Q99500 whole entry, species assumed): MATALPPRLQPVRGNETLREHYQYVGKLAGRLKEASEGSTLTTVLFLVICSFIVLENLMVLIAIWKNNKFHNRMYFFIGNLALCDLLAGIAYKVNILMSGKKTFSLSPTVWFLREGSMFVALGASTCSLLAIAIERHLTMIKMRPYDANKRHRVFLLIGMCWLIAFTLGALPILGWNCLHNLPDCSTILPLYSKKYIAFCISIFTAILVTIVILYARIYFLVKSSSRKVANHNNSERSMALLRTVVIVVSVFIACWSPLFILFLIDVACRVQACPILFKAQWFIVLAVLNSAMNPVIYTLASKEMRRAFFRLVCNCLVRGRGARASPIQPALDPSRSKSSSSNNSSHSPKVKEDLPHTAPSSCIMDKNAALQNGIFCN
Method: as §1
Measurements of ^35S-GTPγS Binding: Membranes (1 to 10 μg protein) prepared as described above, were incubated in 96-well Scintiplates (PerkinElmer) with test compounds diluted in DMSO, in 180 μl of 20 mM HEPES, pH 7.4, 10 mM MgCl2, 2 μg/well Saponin, 0.2% fatty acid free BSA (Assay buffer), 140 mM NaCl and 1.7 μM GDP. The assay was initiated with the addition of 20 μl of 1.5 nM [35S]-GTPγS (1100 Ci/mmol; GE Healthcare) in assay buffer. After 60 min incubation at 30° C. on a shaker, plates were centrifuged for 10 min at 2000 RPM. Supernatant was discarded and membrane bound radioactivity was measured on a PerkinElmer 1450 MicroBeta counter. Triplicate samples were averaged and expressed as % response relative to S1P activation in absence of compound (n=2).

T1 sequence (P21453 whole entry, species assumed): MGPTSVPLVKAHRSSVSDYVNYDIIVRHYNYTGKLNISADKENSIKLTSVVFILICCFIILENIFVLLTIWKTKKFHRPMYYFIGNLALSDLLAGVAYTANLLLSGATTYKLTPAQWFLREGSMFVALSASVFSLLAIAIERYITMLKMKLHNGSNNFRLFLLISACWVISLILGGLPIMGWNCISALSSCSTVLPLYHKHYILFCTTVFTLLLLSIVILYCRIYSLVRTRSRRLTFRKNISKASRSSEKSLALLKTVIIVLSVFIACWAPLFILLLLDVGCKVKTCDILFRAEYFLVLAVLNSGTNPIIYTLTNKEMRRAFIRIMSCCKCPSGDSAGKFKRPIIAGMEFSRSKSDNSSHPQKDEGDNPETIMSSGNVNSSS

| Structure (SMILES) | EC50 (S1P1 [1]) | Ki (S1P1 [2]) | EC50 (S1P3) |
| --- | --- | --- | --- |
| COc1ccc(F)cc1-c1noc(-c2ccc(N3CCCCC3C)c([N+](=O)[O-])c2)n1 (stereo not drawn) [Compound I32, 1-{4-[3-(5-fluoro-2-methoxyphenyl)-1,2,4-oxadiazol-5-yl]-2-nitrophenyl}-2-methylpiperidine] | 2 nM | 1 nM | 1700 nM |
| CC1CCCCN1c1ccc(-c2nc(-c3ccccc3OC(F)(F)F)no2)cc1C(F)(F)F (stereo not drawn) [Compound I34, 2-methyl-1-[4-{3-[2-(trifluoromethoxy)phenyl]-1,2,4-oxadiazol-5-yl}-2-(trifluoromethyl)phenyl]piperidine] | 6 nM | 5 nM | > 20000 nM |
| COc1ccccc1-c1noc(-c2ccc(N3CCCCC3C)c(C(F)(F)F)c2)n1 (stereo not drawn) [Compound I35, 1-[4-[3-(2-methoxyphenyl)-1,2,4-oxadiazol-5-yl]-2-(trifluoromethyl)phenyl]-2-methylpiperidine] | 2 nM | 3 nM | 650 nM |
| Cc1cc(-c2nc(-c3ccccc3OC(F)(F)F)no2)ccc1-c1cscc1C [Compound I44, 5-[3-methyl-4-(4-methyl-3-thienyl)phenyl]-3-[2-(trifluoromethoxy)phenyl]-1,2,4-oxadiazole] | 3 nM | 5 nM | > 20000 nM |
| COc1ccccc1-c1noc(-c2ccc(-c3cscc3C)c(OC)c2)n1 [Compound I48, 5-[3-methoxy-4-(4-methyl-3-thienyl)phenyl]-3-(2-methoxyphenyl)-1,2,4-oxadiazole] | 5 nM | 4 nM | 2180 nM |
| Cc1ccccc1-c1ccc(-c2nc(-c3ccccc3OC(F)(F)F)no2)cc1C(F)(F)F [Compound I55, 5-[2′-methyl-2-(trifluoromethyl)biphenyl-4-yl]-3-[2-(trifluoromethoxy)phenyl]-1,2,4-oxadiazole] | 2 nM | 8 nM | > 30000 nM |
| COc1ccccc1-c1noc(-c2ccc(-c3cscc3C)c(C(F)(F)F)c2)n1 [Compound I57, 3-(2-methoxyphenyl)-5-[4-(4-methyl-3-thienyl)-3-(trifluoromethyl)phenyl]-1,2,4-oxadiazole] | 1 nM | 2 nM | > 20000 nM |
| COc1ccc(F)cc1-c1noc(-c2ccc(N3CCCCC3)c(C(F)(F)F)c2)n1 [Compound I60, 1-[4-[3-(5-fluoro-2-methoxyphenyl)-1,2,4-oxadiazol-5-yl]-2-(trifluoromethyl)phenyl]piperidine] | 2 nM | 1 nM | 617 nM |
| COc1ccc(F)cc1-c1noc(-c2ccc(N3CCCCC3C)c(C(F)(F)F)c2)n1 (stereo not drawn) [Compound I63, 1-[4-[3-(5-fluoro-2-methoxyphenyl)-1,2,4-oxadiazol-5-yl]-2-(trifluoromethyl)phenyl]-2-methylpiperidine] | 1 nM | 3 nM | 125 nM |
| COc1ccc(F)cc1-c1noc(-c2ccc(N3CCCCC3C)c(C#N)c2)n1 (stereo not drawn) [Compound I71, 5-[3-(5-fluoro-2-methoxyphenyl)-1,2,4-oxadiazol-5-yl]-2-(2-methylpiperidin-1-yl)benzonitrile] | 1 nM | 4 nM | 74 nM |
| COc1ccc(F)cc1-c1noc(-c2ccc(N3CCCCC3C)c(NS(C)(=O)=O)c2)n1 (stereo not drawn) [Compound I72, N-[5-[3-(5-fluoro-2-methoxyphenyl)-1,2,4-oxadiazol-5-yl]-2-(2-methylpiperidin-1-yl)phenyl]methanesulfonamide] | 8 nM | 46 nM | > 20000 nM |
| COc1ccc(F)cc1-c1noc(-c2ccc(-c3ccccc3C)c(CO)c2)n1 [Compound I77, {4-[3-(5-fluoro-2-methoxyphenyl)-1,2,4-oxadiazol-5-yl]-2′-methylbiphenyl-2-yl}methanol] | 65 nM | 53 nM | 5610 nM |
| COc1ccc(F)cc1-c1noc(-c2ccc(-c3ccccc3C)c(CN(C)C)c2)n1 [Compound I78, 1-{4-[3-(5-fluoro-2-methoxyphenyl)-1,2,4-oxadiazol-5-yl]-2′-methylbiphenyl-2-yl}-N,N-dimethylmethanamine] | 2 nM | 4 nM | 92 nM |
